Source: US8247610B2, “Amine linked modulators of γ-secretase” (Janssen Pharmaceutica N.V., priority 2007, dated 2012)

Target: T1, γ-secretase (Homo sapiens, UniProt P49768)
T1 construct: endogenous in cells; host or cells: SKNBE2 cells carrying APP 695 wild type
Test: Screening for γ-secretase-modulating activity in SKNBE2 cells carrying the APP 695 wild type
Format: cell-based
Details: SKNBE2 cells carrying APP 695 wild type
Procedure: Screening of the Compounds of the Invention for γ-Secretase-Modulating Activity
Screening was carried out using SKNBE2 cells carrying the APP 695—wild type, grown in DMEM/NUT-mix F12 (HAM) provided by Gibco (cat no. 31330-38) containing 5% Serum/Fe supplemented with 1% non-essential amino acids.
Cells were grown to near confluency.
The screening was performed using the assay as described in Citron et al (1997) Nature Medicine 3: 67.

| EC50 | inhibition at 0.3 µM | Compound |
| --- | --- | --- |
| 170 nM |  | CC(C)CCN(c1ccc(C(F)(F)F)cc1)c1cc(-c2ccc(C(F)(F)F)cc2)cc(C(CC(C)C)C(=O)O)c1 (stereo not shown) [Example 20, 4-Methyl-2-{5-[(3-methyl-butyl)-(4-trifluoromethyl-phenyl)-amino]-4′-trifluoromethyl-biphenyl-3-yl}-pentanoic acid] |
|  | 21% | CC(C)CC(=O)N(c1ccc(Cl)cc1)c1cc(-c2ccc(C(F)(F)F)cc2)cc(C(CC(C)C)C(=O)O)c1 (stereo not shown) [Example 23, 2-{5-[(4-Chloro-phenyl)-(3-methyl-butyryl)-amino]-4′-trifluoromethyl-biphenyl-3-yl}-4-methyl-pentanoic acid] |
|  | 0% | CC(C)CC(C(=O)O)c1cc(-c2ccc(C(F)(F)F)cc2)cc(N2CCc3ccccc32)c1 (stereo not shown) [Example 24, 2-[5-(2,3-Dihydro-indol-1-yl)-4′-trifluoromethyl-biphenyl-3-yl]-4-methyl-pentanoic acid] |
| 600 nM |  | CC(C)CC(C(=O)O)c1cc(-c2cc(F)cc(C(F)(F)F)c2)cc(N(C)c2cc(C(F)(F)F)cc(C(F)(F)F)c2)c1 (stereo not shown) [Example 25, 2-[5′-Fluoro-5-(N-[3,5-bis-(trifluoromethyl)phenyl]-N-methylamino)-3′-trifluoromethyl-biphenyl-3-yl]-4-methyl-pentanoic acid] |
